Assay results as given in patent US8993542B2, “Methods of treating viral infections” (priority 2008, dated 2015).

Legend:
HIV-1IIIB [1] = experiment: Two-drug combination antiviral assay in CEM cells (CPE), MacSynergy II; format: cell-based; conditions: for Antagonism Volume, Result 1 / Antagonism Volume, Result 2 / Antagonism Volume, Result 3 / Mean Antagonism Volume (n = 3) / Mean Synergy Volume (n = 3) / Synergy Volume, Result 1 / Synergy Volume, Result 2 / Synergy Volume, Result 3: in combination with CMX157, CEM-SS cells, 95% confidence; for Interpretation of Antiviral Results (MacSynergy): two-drug combination (with CMX157; control d4T/RBV), CEM-SS cells
HIV-1IIIB [2] = experiment: TCID50 determination of drug-treated HIV-1IIIB; format: cell-based; design: TCID50, XTT Endpoint / TCID50, RT Endpoint / TCID50, P24 Endpoint: unit not given here
[3] = virus treated 15 minutes with 0.039 nM drug
[4] = virus treated 15 minutes with 0.125 nM drug
[5] = virus treated 15 minutes with 0.39 nM drug
[6] = virus treated 15 minutes with 1.25 nM drug
[7] = virus treated 15 minutes with 3.9 nM drug
[8] = virus treated 15 minutes with 12.5 nM drug
[9] = virus treated 15 minutes with 39.1 nM drug
[10] = virus treated 15 minutes with 125 nM drug

Structure (SMILES): CC(C)Nc1cccnc1N1CCN(C(=O)c2cc3cc(NS(C)(=O)=O)ccc3[nH]2)CC1 [Delavirdine (DLV), delavirdine]
- Antagonism Volume, Result 1 (HIV-1IIIB [1]): 0 nM^2 %, μM^2 % or nMμM %
- Antagonism Volume, Result 2 (HIV-1IIIB [1]): 0 nM^2 %, μM^2 % or nMμM %
- Antagonism Volume, Result 3 (HIV-1IIIB [1]): −2.58 nM^2 %, μM^2 % or nMμM %
- Mean Antagonism Volume (n = 3) (HIV-1IIIB [1]): 0 nM^2 %, μM^2 % or nMμM %
- Mean Synergy Volume (n = 3) (HIV-1IIIB [1]): 72.9 nM^2 %, μM^2 % or nMμM %
- Synergy Volume, Result 1 (HIV-1IIIB [1]): 152 nM^2 %, μM^2 % or nMμM %
- Synergy Volume, Result 2 (HIV-1IIIB [1]): 68.4 nM^2 %, μM^2 % or nMμM %
- Synergy Volume, Result 3 (HIV-1IIIB [1]): 1.01 nM^2 %, μM^2 % or nMμM %
- Interpretation of Antiviral Results (MacSynergy) (HIV-1IIIB [1]): slightly synergistic

Structure (SMILES): O=C1Nc2ccc(Cl)cc2C(C#CC2CC2)(C(F)(F)F)O1 (stereo not shown) [Efavirenz (EFV), 6-chloro-4-cyclopropylethynyl-4-trifluoromethyl-1,4-dihydro-2H3,1-benzoxazin-2-one]
- Antagonism Volume, Result 1 (HIV-1IIIB [1]): 0 nM^2 %, μM^2 % or nMμM %
- Antagonism Volume, Result 2 (HIV-1IIIB [1]): 0 nM^2 %, μM^2 % or nMμM %
- Antagonism Volume, Result 3 (HIV-1IIIB [1]): 0 nM^2 %, μM^2 % or nMμM %
- Mean Antagonism Volume (n = 3) (HIV-1IIIB [1]): 0 nM^2 %, μM^2 % or nMμM %
- Mean Synergy Volume (n = 3) (HIV-1IIIB [1]): 69.8 nM^2 %, μM^2 % or nMμM %
- Synergy Volume, Result 1 (HIV-1IIIB [1]): 85.7 nM^2 %, μM^2 % or nMμM %
- Synergy Volume, Result 2 (HIV-1IIIB [1]): 80.6 nM^2 %, μM^2 % or nMμM %
- Synergy Volume, Result 3 (HIV-1IIIB [1]): 43.2 nM^2 %, μM^2 % or nMμM %
- Interpretation of Antiviral Results (MacSynergy) (HIV-1IIIB [1]): slightly synergistic

Structure (SMILES): Cc1cc(C#N)cc(C)c1Oc1nc(Nc2ccc(C#N)cc2)nc(N)c1Br [Etravirine (ETV), etravirine]
- Antagonism Volume, Result 1 (HIV-1IIIB [1]): −0.75 nM^2 %, μM^2 % or nMμM %
- Antagonism Volume, Result 2 (HIV-1IIIB [1]): 0 nM^2 %, μM^2 % or nMμM %
- Antagonism Volume, Result 3 (HIV-1IIIB [1]): −0.87 nM^2 %, μM^2 % or nMμM %
- Mean Antagonism Volume (n = 3) (HIV-1IIIB [1]): −0.29 nM^2 %, μM^2 % or nMμM %
- Mean Synergy Volume (n = 3) (HIV-1IIIB [1]): 69.0 nM^2 %, μM^2 % or nMμM %
- Synergy Volume, Result 1 (HIV-1IIIB [1]): 34.9 nM^2 %, μM^2 % or nMμM %
- Synergy Volume, Result 2 (HIV-1IIIB [1]): 106 nM^2 %, μM^2 % or nMμM %
- Synergy Volume, Result 3 (HIV-1IIIB [1]): 67.4 nM^2 %, μM^2 % or nMμM %
- Interpretation of Antiviral Results (MacSynergy) (HIV-1IIIB [1]): slightly synergistic

Structure (SMILES): CCCCCCCCCCCCCCCCOCCCOP(=O)(O)OCCOCn1cnc2c(=O)[nH]c(N)nc21 [HDP-ACV]
- effect on infectious virus (HIV-1IIIB [2]; 15 minutes, 0.039 to 125 nM): no effect
- Fold Decrease From VC, P24 Endpoint (HIV-1IIIB [2]; [3]): (0) Fold
- Fold Decrease From VC, RT Endpoint (HIV-1IIIB [2]; [3]): (1.2) Fold
- Fold Decrease From VC, XTT Endpoint (HIV-1IIIB [2]; [3]): (0) Fold
- TCID50, P24 Endpoint (HIV-1IIIB [2]; [3]): 30411
- TCID50, RT Endpoint (HIV-1IIIB [2]; [3]): 132749
- TCID50, XTT Endpoint (HIV-1IIIB [2]; [3]): 18115
- Fold Decrease From VC, P24 Endpoint (HIV-1IIIB [2]; [4]): (0) Fold
- Fold Decrease From VC, RT Endpoint (HIV-1IIIB [2]; [4]): (1.6) Fold
- Fold Decrease From VC, XTT Endpoint (HIV-1IIIB [2]; [4]): (1.1) Fold
- TCID50, P24 Endpoint (HIV-1IIIB [2]; [4]): 36277
- TCID50, RT Endpoint (HIV-1IIIB [2]; [4]): 102336
- TCID50, XTT Endpoint (HIV-1IIIB [2]; [4]): 16145
- Fold Decrease From VC, P24 Endpoint (HIV-1IIIB [2]; [5]): (0) Fold
- Fold Decrease From VC, RT Endpoint (HIV-1IIIB [2]; [5]): (1.1) Fold
- Fold Decrease From VC, XTT Endpoint (HIV-1IIIB [2]; [5]): (0) Fold
- TCID50, P24 Endpoint (HIV-1IIIB [2]; [5]): 30411
- TCID50, RT Endpoint (HIV-1IIIB [2]; [5]): 144887
- TCID50, XTT Endpoint (HIV-1IIIB [2]; [5]): 20325
- Fold Decrease From VC, P24 Endpoint (HIV-1IIIB [2]; [6]): (1.4) Fold
- Fold Decrease From VC, RT Endpoint (HIV-1IIIB [2]; [6]): (1.6) Fold
- Fold Decrease From VC, XTT Endpoint (HIV-1IIIB [2]; [6]): (1.1) Fold
- TCID50, P24 Endpoint (HIV-1IIIB [2]; [6]): 21529
- TCID50, RT Endpoint (HIV-1IIIB [2]; [6]): 102336
- TCID50, XTT Endpoint (HIV-1IIIB [2]; [6]): 16145
- Fold Decrease From VC, P24 Endpoint (HIV-1IIIB [2]; [7]): (0) Fold
- Fold Decrease From VC, RT Endpoint (HIV-1IIIB [2]; [7]): (1.6) Fold
- Fold Decrease From VC, XTT Endpoint (HIV-1IIIB [2]; [7]): (0) Fold
- TCID50, P24 Endpoint (HIV-1IIIB [2]; [7]): 30411
- TCID50, RT Endpoint (HIV-1IIIB [2]; [7]): 102336
- TCID50, XTT Endpoint (HIV-1IIIB [2]; [7]): 20325
- Fold Decrease From VC, P24 Endpoint (HIV-1IIIB [2]; [8]): (0) Fold
- Fold Decrease From VC, RT Endpoint (HIV-1IIIB [2]; [8]): (1.1) Fold
- Fold Decrease From VC, XTT Endpoint (HIV-1IIIB [2]; [8]): (0) Fold
- TCID50, P24 Endpoint (HIV-1IIIB [2]; [8]): 36227
- TCID50, RT Endpoint (HIV-1IIIB [2]; [8]): 144887
- TCID50, XTT Endpoint (HIV-1IIIB [2]; [8]): 18115
- Fold Decrease From VC, P24 Endpoint (HIV-1IIIB [2]; [9]): (0) Fold
- Fold Decrease From VC, RT Endpoint (HIV-1IIIB [2]; [9]): (0) Fold
- Fold Decrease From VC, XTT Endpoint (HIV-1IIIB [2]; [9]): (1.1) Fold
- TCID50, P24 Endpoint (HIV-1IIIB [2]; [9]): 30411
- TCID50, RT Endpoint (HIV-1IIIB [2]; [9]): 204659
- TCID50, XTT Endpoint (HIV-1IIIB [2]; [9]): 16145
- Fold Decrease From VC, P24 Endpoint (HIV-1IIIB [2]; [10]): (1.4) Fold
- Fold Decrease From VC, RT Endpoint (HIV-1IIIB [2]; [10]): (0) Fold
- Fold Decrease From VC, XTT Endpoint (HIV-1IIIB [2]; [10]): (0) Fold
- TCID50, P24 Endpoint (HIV-1IIIB [2]; [10]): 21529
- TCID50, RT Endpoint (HIV-1IIIB [2]; [10]): 162566
- TCID50, XTT Endpoint (HIV-1IIIB [2]; [10]): 18115

Structure (SMILES): CC(C)(C)NC(=O)[C@@H]1CN(Cc2cccnc2)CCN1C[C@@H](O)C[C@@H](Cc1ccccc1)C(=O)N[C@H]1c2ccccc2C[C@H]1O [Indinavir (IDV), indinavir]
- Antagonism Volume, Result 1 (HIV-1IIIB [1]): −0.56 nM^2 %, μM^2 % or nMμM %
- Antagonism Volume, Result 2 (HIV-1IIIB [1]): 0 nM^2 %, μM^2 % or nMμM %
- Antagonism Volume, Result 3 (HIV-1IIIB [1]): 0 nM^2 %, μM^2 % or nMμM %
- Mean Antagonism Volume (n = 3) (HIV-1IIIB [1]): −0.19 nM^2 %, μM^2 % or nMμM %
- Mean Synergy Volume (n = 3) (HIV-1IIIB [1]): 53.0 nM^2 %, μM^2 % or nMμM %
- Synergy Volume, Result 1 (HIV-1IIIB [1]): 78.7 nM^2 %, μM^2 % or nMμM %
- Synergy Volume, Result 2 (HIV-1IIIB [1]): 62.7 nM^2 %, μM^2 % or nMμM %
- Synergy Volume, Result 3 (HIV-1IIIB [1]): 17.6 nM^2 %, μM^2 % or nMμM %
- Interpretation of Antiviral Results (MacSynergy) (HIV-1IIIB [1]): slightly synergistic
